Results: PubChem BioAssay (NCI)
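GI50: concentration for 50% inhibition of growth. TGI is the concentration that stops growth completely.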

Assays:
Test in all cases: NCI-60 cell line screen, 384-well format
[1] = test system: BT-549 breast
[2] = test system: MOLT-4 leukemia
[3] = test system: ACHN renal
[4] = test system: SK-OV-3 ovarian
[5] = test system: MDA-MB-231 breast
[6] = test system: SK-MEL-2 melanoma
[7] = test system: SK-MEL-28 melanoma
[8] = test system: UACC-62 melanoma
[9] = test system: SNB-19 CNS
[10] = test system: HT29 colon
[11] = test system: OVCAR-5 ovarian
[12] = test system: NCI-H226 lung
[13] = test system: RPMI-8226 leukemia
[14] = test system: SN12C renal
[15] = test system: HCT-15 colon
[16] = test system: UO-31 renal
[17] = test system: OVCAR-3 ovarian
[18] = test system: IGROV1 ovarian
[19] = test system: OVCAR-4 ovarian
[20] = test system: TK-10 renal
[21] = test system: MDA-MB-468 breast
[22] = test system: 786-0 renal
[23] = test system: COLO 205 colon
[24] = test system: K-562 leukemia
[25] = test system: HCC-2998 colon
[26] = test system: NCI-H522 lung
[27] = test system: SF-539 CNS
[28] = test system: KM12 colon
[29] = test system: NCI-H23 lung
[30] = test system: HL-60(TB) leukemia
[31] = test system: U251 glioblastoma
[32] = test system: MCF7 breast
[33] = test system: T-47D breast
[34] = test system: SF-268 CNS
[35] = test system: HOP-62 NSCLC
[36] = test system: MDA-MB-435 melanoma
[37] = test system: CAKI-1 renal
[38] = test system: NCI-H322M lung
[39] = test system: UACC-257 melanoma
[40] = test system: CCRF-CEM leukemia
[41] = test system: RXF 393 renal
[42] = test system: LOX IMVI melanoma
[43] = test system: DU-145 prostate
[44] = test system: SF-295 CNS
[45] = test system: SW-620 colon
[46] = test system: NCI/ADR-RES ovarian
[47] = test system: SK-MEL-5 melanoma
[48] = test system: HCT-116 colon
[49] = test system: A549 NSCLC
[50] = test system: PC-3 prostate
[51] = test system: OVCAR-8 ovarian
[52] = test system: M14 melanoma
[53] = test system: HOP-92 NSCLC
[54] = test system: SR leukemia
[55] = test system: NCI-H460 NSCLC
[56] = test system: MALME-3M melanoma
[57] = test system: A498 renal

CO[C@@H]1/C=C\C=C(/C)C(=O)NC2=CC(=O)C(NCCN(C)C)=C(C[C@@H](C)C[C@@H](OC)[C@@H](O)[C@H](C)/C=C(\C)[C@H]1OC(N)=O)C2=O
GI50 [1]: < 10 nM
TGI [1]: < 10 nM
GI50 [2]: 16.9 nM
TGI [2]: 33.7 nM
GI50 [3]: 128 nM
TGI [3]: 2540 nM
GI50 [4]: 12.5 nM
TGI [4]: 90.6 nM
GI50 [5]: 23.7 nM
TGI [5]: 68.1 nM
GI50 [6]: < 10 nM
TGI [6]: 27.5 nM
GI50 [7]: 12.5 nM
TGI [7]: 9830 nM
GI50 [8]: < 10 nM
TGI [8]: 48.4 nM
GI50 [9]: 18.2 nM
TGI [9]: 2180 nM
GI50 [10]: < 10 nM
TGI [10]: 1080 nM
GI50 [11]: 36 nM
TGI [11]: 173 nM
GI50 [12]: 22.7 nM
TGI [12]: 84.5 nM
GI50 [13]: 16.1 nM
TGI [13]: 35.4 nM
GI50 [14]: 12 nM
TGI [14]: 41.6 nM
GI50 [15]: 84.3 nM
TGI [15]: 1310 nM
GI50 [16]: 368 nM
TGI [16]: 11700 nM
GI50 [17]: 23.3 nM
TGI [17]: 76.3 nM
GI50 [18]: 22.6 nM
TGI [18]: 63.1 nM
GI50 [19]: 17.4 nM
TGI [19]: 359 nM
GI50 [20]: 77.4 nM
TGI [20]: 846 nM
GI50 [21]: 23.8 nM
TGI [21]: 54.3 nM
GI50 [22]: 34.5 nM
TGI [22]: 174 nM
GI50 [23]: < 10 nM
TGI [23]: < 10 nM
GI50 [24]: 24.1 nM
TGI [24]: 85.3 nM
GI50 [25]: < 10 nM
TGI [25]: 28.9 nM
GI50 [26]: 13 nM
TGI [26]: 30.5 nM
GI50 [27]: < 10 nM
TGI [27]: 24.6 nM
GI50 [28]: 15.2 nM
TGI [28]: 86.4 nM
GI50 [29]: 24.1 nM
TGI [29]: 67.8 nM
GI50 [30]: 21 nM
TGI [30]: 37.1 nM
GI50 [31]: < 10 nM
TGI [31]: 36.2 nM
GI50 [32]: 13.2 nM
TGI [32]: 147 nM
GI50 [33]: 102 nM
TGI [33]: 790 nM
GI50 [34]: 24.8 nM
TGI [34]: 2320 nM
GI50 [35]: 16.8 nM
TGI [35]: 66.1 nM
GI50 [36]: 29.4 nM
TGI [36]: 1360 nM
GI50 [37]: 52.7 nM
TGI [37]: 12100 nM
GI50 [38]: < 10 nM
TGI [38]: 3400 nM
GI50 [39]: 19 nM
TGI [39]: 99 nM
GI50 [40]: 38.1 nM
TGI [40]: 138 nM
GI50 [41]: < 10 nM
TGI [41]: 16.9 nM
GI50 [42]: 18.6 nM
TGI [42]: 33.4 nM
GI50 [43]: < 10 nM
TGI [43]: 22.4 nM
GI50 [44]: 27.7 nM
TGI [44]: 96.9 nM
GI50 [45]: < 10 nM
TGI [45]: 78.1 nM
GI50 [46]: 2180 nM
TGI [46]: 5060 nM
GI50 [47]: < 10 nM
TGI [47]: 366 nM
GI50 [48]: 26.9 nM
TGI [48]: 1340 nM
GI50 [49]: < 10 nM
TGI [49]: 673 nM
GI50 [50]: 19.9 nM
TGI [50]: 53.1 nM
GI50 [51]: 21.6 nM
TGI [51]: 48.3 nM
GI50 [52]: < 10 nM
TGI [52]: 38 nM
GI50 [53]: 36.4 nM
TGI [53]: 137 nM
GI50 [54]: 12.7 nM
TGI [54]: 27 nM
GI50 [55]: < 10 nM
TGI [55]: < 10 nM
GI50 [56]: < 10 nM
TGI [56]: < 10 nM
GI50 [57]: 50.8 nM
TGI [57]: 12700 nM
